Measured values as given in patent US7666871B2, “Oxazole derivatives as histamine H3 receptor agents, preparation and therapeutic uses” (Eli Lilly and Company, priority 2004, dated 2010).

Molecular target: T1, human H3R (Homo sapiens, UniProt Q9Y5N1)
T1 construct: expressed in transfected cells; pcDNA3.1(+) vector, G418 selection), membranes
Assay: Histamine H3 Receptor Binding Assay (competitive inhibition SPA, membranes of transfected HEK293 cells)
Conditions: Ki's at the human H3R
From the text: The compounds of the present invention can readily be evaluated by using a competitive inhibition Scintillation Proximity Assay (SPA) based on a H3R binding assay using R-[3H] α methylhistamine as ligand. Stable cell lines, including but not limited to HEK can be transfected with cDNA coding for H3R to prepare membranes used for the binding assay. The technique is illustrated below (Preparation of Histamine Receptor Subtype Membranes) for the histamine receptor subtypes.
cDNA for the human histamine 1 receptor (H1R) was cloned into a mammalian expression vector containing the CMV promoter (pcDNA3.1(+), Invitogen) and transfected into HEK293 cells using the FuGENE Tranfection Reagent (Roche Diagnostics Corporation). Transfected cells were selected using G418 (500 μ/mL). Colonies that survived selection were grown and tested for histamine binding to cells grown in 96-well dishes using a scintillation proximity assay (SPA) based radioligand binding assay. Briefly, cells, representing individual selected clones, were grown as confluent monolayers in 96-well dishes (Costar Clear Bottom Plates, #3632) by seeding wells with 25,000 cells and growing for 48 hours (37° C., 5% CO2). […] Plates were counted in a Wallac Trilux 1450 Microbeta scintillation counter. […]
cDNA for the human histamine 3 receptor was cloned and expressed as described in (A. Preparation H1R membranes), above. […]

T1 sequence (Q9Y5N1 whole entry): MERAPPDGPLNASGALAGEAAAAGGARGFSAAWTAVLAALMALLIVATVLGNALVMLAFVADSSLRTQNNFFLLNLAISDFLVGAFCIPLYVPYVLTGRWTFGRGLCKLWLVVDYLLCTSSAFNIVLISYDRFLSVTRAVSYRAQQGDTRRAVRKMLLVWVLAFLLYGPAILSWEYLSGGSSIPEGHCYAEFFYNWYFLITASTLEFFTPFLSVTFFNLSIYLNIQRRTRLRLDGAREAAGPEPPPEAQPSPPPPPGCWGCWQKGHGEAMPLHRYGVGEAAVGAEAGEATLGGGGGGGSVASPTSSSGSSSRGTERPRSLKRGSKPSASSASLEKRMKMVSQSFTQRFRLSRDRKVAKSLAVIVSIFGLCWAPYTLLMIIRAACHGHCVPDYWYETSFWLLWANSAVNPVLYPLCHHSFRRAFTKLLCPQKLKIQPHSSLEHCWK

## CS(=O)(=O)Nc1ccc(-c2ccc(-c3nc(CN4CCCC4)co3)cc2)cc1
  Ki: 1.6 nM

## COC[C@@H]1CCCN1CCc1nc(-c2ccc(-c3cccnc3)cc2)oc1C
  Ki: 14.3 nM
